# Columns and labels:
# [1] = tested on: H460 human non-small cell lung carcinoma, C-4 human cervical carcinoma, K562 human leukaemia, and the A431 human epidermoid cell lines; assay: MTT cytotoxicity assay, 72 hours, panel of human cancer cell lines; assay type: cell-based
# [2] = tested on: H460 human non-small cell lung carcinoma tumor xenograph; assay: H460 SC tumor mouse model; assay type: in vivo, SCID/Rag-2 mice
# Protocol: Cultures of H460 Human Lung cells are available from the British Columbia Cancer Research Center. Cells were injected subcutaneously twice into mature male Rag-2 mice (24 mice, 1×10^6 cells/mouse) using a 26-gauge needle. The H460 cells were suspended in a Hank's Balanced Salt Solution without calcium. Tumors were allowed to form in the mice for 11 days.
# When the tumors were well established, four separate groups of mice, were selected for administration of the three test articles (i.e. one group for each test article of AHVB bisulphate, AHVB ditartrate, and Navelbine™) and one control.
# AHVB bisulphate and ditartrate, and Navelbine™ were solubilized using 5% dextrose saturated with Argon. Both of these articles were at a concentration of 20 mg/ml. Any dose dilutions were made with 5% dextrose.
# The articles were administered intravenously on the days 1, 5 and 9, as were controls of 5% dextrose. Body weights and tumor measurements with calipers were taken every day for the first 10 days and then every other day for the remainder of the study.
# Following administration of the test articles, the animals; weight and tumor size (using calipers) were determined daily for the first 10 days and then every other day for the remainder of the study. If the tumor size reached 1 gram in weight or the tumor started to ulcerate, the animals were sacrificed (by carbon dioxide inhalation) and subjected to necropsy. Animals were also monitored at least daily for signs of stress for the full length of the study. Animals manifesting severe symptoms of stress (rapid weight loss, panting, hunched posture, scruffy coat) were also sacrificed and a necropsy performed.
# The results of the efficacy studies are given in FIG. 9 and present averages of data from 6 or fewer animals. […] Each tumor was measured in length and width and the volume of each tumor was calculated by […]. […] The calculation was performed each day the tumors were measured. The standard deviation of the mean and the standard error of the mean were calculated with the error bars appearing in the graph in FIG. 9. […]
# [3] = IV 10 mg/kg and 20 mg/kg on days 1, 5 and 9
smiles,measurement,setting,value
"CCC1=C[C@H]2CN(CCc3c([nH]c4ccccc34)[C@@](C(=O)OC)(c3cc4c(cc3OC)N(C)[C@H]3[C@@](O)(C(=O)OC)[C@H](OC(C)=O)[C@]5(CC)C=CCN6CC[C@]43[C@@H]65)C2)C1 [AHVB, 3′,4′-anhydrovinblastine]",IC50,"[1]; drug exposure time 72 hours, range over H460, C-4, K562, A431",20 to 24 nM
same,fold less active than Navelbine in vitro,[1]; same cell lines,approximately 10 fold
same,toxicity compared with Navelbine,[2]; [3],less toxic than Navelbine™
same,tumor growth inhibition compared with Navelbine,[2]; [3],greater tumor growth inhibition
same,activity compared with vincristine and vinorelbine,"[2]; human tumor xenografts of NSCLC, equitoxic doses",superior activity to that of both vincristine and vinorelbine

# Reference: US20030162803A1, “Anhydrovinblastine for the treatment of cancer” (priority 1997, published 2003)
